Assay results taken from US11116752B2, “Pharmaceutical composition comprising bicyclo-substituted pyrazolon azo derivative or salt thereof and preparation method thereof” (Jiangsu Hengrui Medicine Co., Ltd., priority 2016, dated 2021).

Test: Stability test of Compound B and its mixtures with fillers (1:10)
Format: physicochemical
Method: The Compound B was mixed respectively with cellulose-lactose (cellactose 80), a simple mixture of cellulose and lactose (75%:25%), spray-dried lactose (Flowlac 100), microcrystalline cellulose PH302, or microcrystalline cellulose PH102 in a ratio of 1:10. The above mixtures and Compound B were placed respectively under conditions of 40° C./RH75%/open, 40° C./RH75%/closed, or 60° C./closed for 2 weeks and 4 weeks.

- Appearance (40° C./RH75%/closed, 2 Weeks): Dark red powder
- Related substances (%) (40° C./RH75%/closed, 2 Weeks): 1.08%
- Appearance (40° C./RH75%/closed, 4 Weeks): Dark red powder
- Related substances (%) (40° C./RH75%/closed, 4 Weeks): 1.18%
- Appearance (40° C./RH75%/open, 2 Weeks): Dark red mass
- Related substances (%) (40° C./RH75%/open, 2 Weeks): 1.32%
- Appearance (40° C./RH75%/open, 4 Weeks): Dark red mass
- Related substances (%) (40° C./RH75%/open, 4 Weeks): 1.93%
- Appearance (60° C./closed, 2 Weeks): Dark red mass
- Related substances (%) (60° C./closed, 2 Weeks): 3.05%
- Appearance (60° C./closed, 4 Weeks): Dark red mass
- Related substances (%) (60° C./closed, 4 Weeks): 4.84%
- Appearance (Initial point, 0 Day): Dark red powder
- Related substances (%) (Initial point, 0 Day): 0.90%
Structure (SMILES): CC1=NN(c2ccc3c(c2)CCCC3)C(=O)/C1=N\Nc1cccc(-c2ccc(C(=O)O)o2)c1O [Compound B, (Z)-5-(2-hydroxy-3-(2-(3-methyl-5-oxo-1-(5,6,7,8-tetrahydronaphthalen-2-yl)-1H-pyrazol-4(5H)-ylidene)hydrazino)phenyl)furan-2-carboxylic acid]
